Measured values: patent publication US20230372498A1, “PLK1 SELECTIVE DEGRADATION INDUCING COMPOUND” (UPPTHERA, priority 2020, published 2023)

Molecular target: T1, PLK1 (Homo sapiens, UniProt P53350)
T1 construct: endogenous in cells; host or cells: HeLa
Assay: PLK1 protein degradation in HeLa cells, Western blotting (PLK1/GAPDH ratio)
Format: cell-based
Details: 6 hours compound incubation; for DC50: measured only if the grade of Dmax is A or B; for Dmax: thymidine block and release, 10 points three-fold from 3 μM, PLK1 to GAPDH ratio, read-out: Dmax
Excerpt: The HeLa cell line was purchased from Korea Cell Line Bank (KCLB), Seoul, Korea. The passage in cell culture was maintained at P115 to P125.
For cell culture, DMEM (Gibco, Cat. No. 1195-65; Lot. No. 2085318), FBS (Gibco, Cat. No. 16000-044; Lot. No. 2097593), Penicillin/Streptomycin (PS) (Gibco, Cat. No. 15140-122; Lot. No. 2058855), 100 mm^2 cell culture dish (SPL, Cat. No. 20100), 150 mm^2 cell culture dish (SPL, Cat. No. 20150), 12-well culture plate (SPL, Cat. No. 30012), PBS pH 7.4 (Gibco, Cat. No. 10010-023; Lot. No. 2085080), TrypLE™ Express (Gibco, Cat. No. 12605-010; Lot No. 2070638), Counting Chamber (Hematocytometer) (Hirschmann, Cat. No. 8100204), and 0.4% Trypan Blue Solution (DYNEBIO, Cat. No. CBT3710; Lot. No. 20190723) were used.
2×10^5 cells were seeded for each well of a 12-well plate (SPL), and the cells were cultured in the culture medium in a total volume of 2 ml.
The compounds of Examples were completely dissolved in DMSO and used in the experiment, and thymidine was completely dissolved in DW and used in the experiment. For thymidine block, the products were treated with 2 mM of thymidine (Sigma-Aldrich Cat. No. T9250-5G) and then incubated for 24 hours.
For release and chemical treatment, the medium was suctioned and washed 3 times with 1×PBS. Complete media was added, followed by incubation for 4 hours in a CO2 incubator. Each compound was diluted three folds from the highest concentration of 3 μM to the lowest concentration in 10 points and then incubated for 6 hours again.
For SDS-PAGE and Western blotting, 1×RIPA lysis buffer (Rockland, Cat. No. MB-030-0050; Lot no. 39751), 100× Protease Inhibitor Cocktail (Quartett, Cat. No. PPI1015; Lot no. PCO50038424), Pierce™ BCA protein assay kit (ThermoScientific, Cat. No. 23225; Lot no. UC276876), albumin standard (ThermoScientific, Cat. No. 23209; Lot no. UB269561), 4-15% Mini-PROTEAN TGX stain-free gel (Bio-rad, Cat. No. 4568085; Lot no. L007041B), 10× Tris/Glycine/SDS buffer (Bio-rad, Cat. No. 1610732; Lot no. 10000044375B); 10×TBS (Bio-rad, Cat. No. 1706435; Lot no. 1000045140B), 10% Tween 20 (Cat. No. 1610781; Lot no. L004152B), Color protein standard broad range (NEB, Cat. No. P7719S; Lot no. 10040349), 4× Laemmli sample buffer (Bio-rad, Cat. No. 1610747; Lot no. L004133B), β-mercaptoethanol (Sigma-Aldrich, Cat. No. M3148; Lot no. 60-24-2), SuperBlock™ T20 (TBS) blocking buffer (ThermoScientific, Cat. No. 37536; Lot no. UC282578), 1M sodium azide solution (Sigma-Aldrich, Cat. No. 08591-1 mL-F; Lot no. BCBV4989), α-Rabbit pAb to Ms IgG (abcam, Cat. No. ab97046; Lot no. GR3252115-1), α-Goat pAb to Rb IgG (CST, Cat. No. 7074S; Lot no. 28), α-GAPDH (abcam, Cat. No. ab8245; Lot no. GR3275542-2), α-Plk1 (CST, Cat. No. 208G4), α-BRD4 (CST, Cat. No. 13440S), ECL™ Prime western blotting reagents (GE Healthcare, Cat. No. RPN2232; Lot no. 17001655), Ponceau S solution (Sigma-Aldrich, Cat. No. P7170; Lot no. SLBV4112), Difco™ Skim milk (BD, Cat. No. 232100; Lot no. 8346795), and iBlot® 2 NC Regular stacks (Invitrogen, Cat. No. IB323001; Lot no. 2NR110619-02) were used.
For cell harvesting, the cells were first separated from the plate using trypsin and then washed with the medium and PBS. Specifically, the medium was suctioned off and washed with 1 mL of PBS, and PBS was suctioned off. The cells were treated with 0.5 mL TrypLE™ Express at 37° C. for 7 minutes to separate the cells, and then 0.5 mL of complete medium was added to collect 1 mL of cell culture solution. Then, 1 mL of the cell collection solution was centrifuged at 8,000 rpm for 120 seconds, and the supernatant was removed. After washing with 0.2 mL of PBS, the PBS was removed.
For cell lysis, a lysis buffer was added and cell debris was removed to obtain a cell lysate. Specifically, the cells were treated with 70 μL of 1×RIPA buffer containing a protease inhibitor and incubated for 30 minutes on ice. Then, the cells were centrifuged at 4° C. and 15,000 rpm for 10 minutes to obtain a cell lysate. […]

T1 sequence (P53350 whole entry): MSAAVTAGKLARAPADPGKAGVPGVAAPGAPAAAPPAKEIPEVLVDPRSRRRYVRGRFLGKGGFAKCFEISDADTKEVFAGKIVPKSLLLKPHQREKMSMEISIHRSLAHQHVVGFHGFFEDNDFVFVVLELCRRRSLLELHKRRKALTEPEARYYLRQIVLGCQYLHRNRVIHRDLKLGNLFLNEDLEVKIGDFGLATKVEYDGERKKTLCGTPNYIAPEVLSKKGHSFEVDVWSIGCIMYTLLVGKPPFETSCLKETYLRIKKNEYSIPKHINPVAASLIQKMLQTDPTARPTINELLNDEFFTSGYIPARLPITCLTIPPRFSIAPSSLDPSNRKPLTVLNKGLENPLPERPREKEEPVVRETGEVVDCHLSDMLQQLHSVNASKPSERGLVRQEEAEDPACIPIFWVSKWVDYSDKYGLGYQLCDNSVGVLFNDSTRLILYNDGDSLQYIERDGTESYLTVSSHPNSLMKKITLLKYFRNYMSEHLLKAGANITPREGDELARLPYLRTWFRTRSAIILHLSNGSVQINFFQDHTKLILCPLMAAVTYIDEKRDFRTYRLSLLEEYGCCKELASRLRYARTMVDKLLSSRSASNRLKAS

| Compound | DC50 [µM] | Dmax [%] |
| --- | --- | --- |
| COc1cc(C(=O)N[C@H]2CCN(C(=O)CCCC(=O)N3CC4(C3)CN(c3cccc5c3C(=O)N(C3CCC(=O)NC3=O)C5=O)C4)C2)c(F)cc1Nc1ncc2c(n1)N(C1CCCC1)CC(F)(F)C(=O)N2C (stereo partly drawn) [Compound 149, 4-((9-cyclopentyl-7,7-difluoro-5-methyl-6-oxo-6,7,8,9-tetrahydro-5H-pyrimido[4,5-b][1,4]diazepin-2-yl)amino)-N-((3S)-1-(5-(6-(2-(2,6-dioxopiperidin-3-yl)-1,3-dioxoisoindolin-4-yl)-2,6-diazaspiro[3.3]heptan-2-yl)-5-oxopentanoyl)pyrrolidin-3-yl)-2-fluoro-5-methoxybenzamide] | ≤ 0.5 | 60 to 80 |
| COc1cc(C(=O)NC2CCN(CCCCCCCCNc3cccc4c3CN(C3CCC(=O)NC3=O)C4=O)CC2)c(F)cc1Nc1ncc2c(n1)N(C1CCCC1)CC(F)(F)C(=O)N2C (stereo not shown) [Compound 77, 4-((9-cyclopentyl-7,7-difluoro-5-methyl-6-oxo-6,7,8,9-tetrahydro-5H-pyrimido[4,5-b][1,4]diazepin-2-yl)amino)-N-(1-(8-((2-(2,6-dioxopiperidin-3-yl)-1-oxoisoindolin-4-yl)amino)octyl)piperidin-4-yl)-2-fluoro-5-methoxybenzamide] | ≤ 0.5 | 60 to 80 |
| CN1C(=O)C(F)(F)CN(C2CCCC2)c2nc(Nc3cc(F)c(C(=O)NC4CCN(CCOCCOCCNc5cccc6c5C(=O)N(C5CCC(=O)NC5=O)C6=O)CC4)cc3OC3CCC3)ncc21 (stereo not shown) [Example 93, 5-cyclobutoxy-4-((9-cyclopentyl-7,7-difluoro-5-methyl-6-oxo-6,7,8,9-tetrahydro-5H-pyrimido[4,5-b][1,4]diazepin-2-yl)amino)-N-(1-(2-(2-(2-((2-(2,6-dioxopiperidin-3-yl)-1,3-dioxoisoindolin-4-yl)amino)ethoxy)ethoxy)ethyl)piperidin-4-yl)-2-fluorobenzamide] | ≤ 0.05 | ≥ 80 |
| CN1C(=O)C(F)(F)CN(C2CCCC2)c2nc(Nc3cc(F)c(C(=O)NC4CCN(CCOCCOCCNc5cccc6c5C(=O)N(C5CCC(=O)NC5=O)C6=O)CC4)cc3OC3CCCC3)ncc21 (stereo not shown) [Example 95, 4-((9-cyclopentyl-7,7-difluoro-5-methyl-6-oxo-6,7,8,9-tetrahydro-5H-pyrimido[4,5-b][1,4]diazepin-2-yl)amino)-5-(cyclopentyloxy)-N-(1-(2-(2-(2-((2-(2,6-dioxopiperidin-3-yl)-1,3-dioxoisoindolin-4-yl)amino)ethoxy)ethoxy)ethyl)piperidin-4-yl)-2-fluorobenzamide] | > 0.5 | 60 to 80 |
| CCC(C)Oc1cc(C(=O)NC2CCN(CCOCCOCCNc3cccc4c3C(=O)N(C3CCC(=O)NC3=O)C4=O)CC2)c(F)cc1Nc1ncc2c(n1)N(C1CCCC1)CC(F)(F)C(=O)N2C (stereo not shown) [Example 94, 5-(sec-butoxy)-4-((9-cyclopentyl-7,7-difluoro-5-methyl-6-oxo-6,7,8,9-tetrahydro-5H-pyrimido[4,5-b][1,4]diazepin-2-yl)amino)-N-(1-(2-(2-(2-((2-(2,6-dioxopiperidin-3-yl)-1,3-dioxoisoindolin-4-yl)amino)ethoxy)ethoxy)ethyl)piperidin-4-yl)-2-fluorobenzamide] | > 0.5 | 60 to 80 |
| COc1cc(C(=O)N[C@@H]2CCN(C(=O)CCCN3CCN(c4cccc5c4C(=O)N(C4CCC(=O)NC4=O)C5=O)CC3)C2)c(F)cc1Nc1ncc2c(n1)N(C1CCCC1)CC(F)(F)C(=O)N2C (stereo partly drawn) [Compound 133, 4-((9-cyclopentyl-7,7-difluoro-5-methyl-6-oxo-6,7,8,9-tetrahydro-5H-pyrimido[4,5-b][1,4]diazepin-2-yl)amino)-N-((3R)-1-(4-(4-(2-(2,6-dioxopiperidin-3-yl)-1,3-dioxoisoindolin-4-yl)piperazin-1-yl)butanoyl)pyrrolidin-3-yl)-2-fluoro-5-methoxybenzamide] | ≤ 0.05 | ≥ 80 |
| COc1cc(C(=O)NC2CCN(C(=O)COCCOCCNc3cccc4c3C(=O)N(C3CCC(=O)NC3=O)C4=O)CC2)c(F)cc1Nc1ncc2c(n1)N(C1CCCC1)CC(F)(F)C(=O)N2C (stereo not shown) [Compound 33, 4-((9-cyclopentyl-7,7-difluoro-5-methyl-6-oxo-6,7,8,9-tetrahydro-5H-pyrimido[4,5-b][1,4]diazepin-2-yl)amino)-N-(1-(2-(2-(2-((2-(2,6-dioxopiperidin-3-yl)-1,3-dioxoisoindolin-4-yl)amino)ethoxy)ethoxy)acetyl)piperidin-4-yl)-2-fluoro-5-methoxybenzamide] | ≤ 0.05 | ≥ 80 |
| CN1C(=O)C(F)(F)CN(C2CCCC2)c2nc(Nc3ccc(C(=O)N[C@H]4CCN(C(=O)CCC(=O)N5CCN(c6cccc7c6C(=O)N(C6CCC(=O)NC6=O)C7=O)CC5)C4)cc3)ncc21 (stereo partly drawn) [Compound 142, 4-((9-cyclopentyl-7,7-difluoro-5-methyl-6-oxo-6,7,8,9-tetrahydro-5H-pyrimido[4,5-b][1,4]diazepin-2-yl)amino)-N-((3S)-1-(4-(4-(2-(2,6-dioxopiperidin-3-yl)-1,3-dioxoisoindolin-4-yl)piperazin-1-yl)-4-oxobutanoyl)pyrrolidin-3-yl)benzamide] | ≤ 0.5 | 60 to 80 |
| COc1cc(C(=O)N[C@H]2CCN(C(=O)CCCN3CC4(C3)CN(c3cccc5c3C(=O)N(C3CCC(=O)NC3=O)C5=O)C4)C2)c(F)cc1Nc1ncc2c(n1)N(C1CCCC1)CC(F)(F)C(=O)N2C (stereo partly drawn) [Example 175, 4-((9-cyclopentyl-7,7-difluoro-5-methyl-6-oxo-6,7,8,9-tetrahydro-5H-pyrimido[4,5-b][1,4]diazepin-2-yl)amino)-N-((3S)-1-(4-(6-(2-(2,6-dioxopiperidin-3-yl)-1,3-dioxoisoindolin-4-yl)-2,6-diazaspiro[3.3]heptan-2-yl)butanoyl)pyrrolidin-3-yl)-2-fluoro-5-methoxybenzamide] |  | ≥ 80 |
| COc1cc(C(=O)NC2CCN(CCCCCCCCOc3cc(-c4scnc4C)ccc3CNC(=O)[C@@H]3C[C@@H](O)CN3C(=O)[C@@H](NC(=O)C3(F)CC3)C(C)(C)C)CC2)c(F)cc1Nc1ncc2c(n1)N(C1CCCC1)CC(F)(F)C(=O)N2C [Example 89, (2S,4R)—N-(2-((8-(4-(4-((9-cyclopentyl-7,7-difluoro-5-methyl-6-oxo-6,7,8,9-tetrahydro-5H-pyrimido[4,5-b][1,4]diazepin-2-yl)amino)-2-fluoro-5-methoxybenzamido)piperidin-1-yl)octyl)oxy)-4-(4-methylthiazol-5-yl)benzyl)-1-((S)-2-(1-fluorocyclopropane-1-carboxamido)-3,3-dimethylbutanoyl)-4-hydroxypyrrolidine-2-carboxamide] | ≤ 0.5 | 60 to 80 |
